For five compounds, EC50 and Emax results are on record in patent US12281149B2, “Modulators of G-protein coupled receptors” (priority 2021, dated 2025).

As a reminder, the EC50 is the midpoint of the concentration-response curve. What is called Emax is the maximal effect, on the per cent scale that the assay sets.

Assay type in all cases: cell-based
Assay [1] addresses T1, GLP-1 receptor (Homo sapiens, UniProt P43220). As to the kind of experiment: HitHunter cAMP assay, GLP-1 receptor. The note with it: for Emax: read-out: Emax GLP-1R. (In general: Cyclic AMP is a second messenger, typically raised through Gs and lowered through Gi signalling.)
The target of assay [2] is T1, GLP-1 receptor. Nature of the assay: PathHunter β-arrestin assay, GLP-1 receptor. The arrangement: host or cells: PathHunter CHO-K1 GLP1R β-Arrestin Cell Line.
Assay [3] deals with T2, GIP receptor (Homo sapiens, UniProt P48546).
T2 sequence (P48546 22-466): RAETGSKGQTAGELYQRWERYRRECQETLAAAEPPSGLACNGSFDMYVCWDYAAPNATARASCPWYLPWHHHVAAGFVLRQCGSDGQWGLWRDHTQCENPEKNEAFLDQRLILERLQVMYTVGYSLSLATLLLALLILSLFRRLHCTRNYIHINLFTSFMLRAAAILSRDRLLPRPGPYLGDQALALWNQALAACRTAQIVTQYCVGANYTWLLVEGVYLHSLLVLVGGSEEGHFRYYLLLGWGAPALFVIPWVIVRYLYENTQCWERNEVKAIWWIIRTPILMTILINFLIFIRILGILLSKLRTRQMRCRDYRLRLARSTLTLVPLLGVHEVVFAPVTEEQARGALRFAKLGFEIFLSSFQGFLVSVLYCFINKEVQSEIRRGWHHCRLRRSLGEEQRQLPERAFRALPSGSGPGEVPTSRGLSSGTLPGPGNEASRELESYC
Nature of the assay: HitHunter cAMP assay, GIP receptor. The note with it: for Emax: read-out: Emax GIP-1R.

For assay [4], the target named is T2, GIP receptor. Nature of the assay: PathHunter β-arrestin assay, GIP receptor. Details: host or cells: PathHunter CHO-K1 GIPR β-Arrestin Cell Line.
Where [5] appears, read: CHO cells stably expressing human GLP-1 receptor, cAMP accumulation, 30 min, read-out: EC50 GLP-1R.
[6] abbreviates: CHO cells, cAMP, normalized to maximum signal from GLP-1 (high) and DMSO (low).
The mark [7] stands for this setting: β-arrestin-2 recruitment, PathHunter CHO-K1 GLP1R β-Arrestin Cell Line, 90 min at 37° C., normalized to GLP-1, read-out: GLP-1R β Arrestin EC50.
Setting [8] is: CHO cells stably expressing GIP receptor, cAMP accumulation, 30 min, read-out: EC50 GIP-1R.
Where [9] appears, read: CHO cells, cAMP, normalized to maximum signal from GIP (high) and DMSO (low).
The mark [10] stands for this setting: β-arrestin-2 recruitment, PathHunter CHO-K1 GIPR β-Arrestin Cell Line, 90 min at 37° C., normalized to GIP, read-out: GIPR β Arrestin EC50.

Like-named read-outs stand apart in the source and are kept apart here. *1 amine or outer side, *2 acyl side, *3 side chain or, on linkers, in order; H or OH if unused. Where a SMILES comes first, the peptide text is derived from it. Side-chain parts run from the residue outwards. [ ]: non-standard residue; d: D form. The star is where a group is joined. cPentCO(1-(4-ClPh)) = O=C(C1(c2ccc(Cl)cc2)CCCC1)*; C20 diacid = O=C(O)CCCCCCCCCCCCCCCCCCC(=O)*; Phenylacetyl(3-Cl) = O=C(Cc1cccc(Cl)c1)*; γGlu = O=C(O)[C@H](CCC(=O)[*:2])N[*:1]; X5 = O=C(C1(c2ccc(F)cc2F)CCCC1)*; X72 = CC(C)(C(=O)*)c1cccc(Cl)c1F; X33 = CCC(CC)(C(=O)*)c1ccccc1; AEEA = NCCOCCOCC(=O)O; Aib = CC(C)(N)C(=O)O; GABA = NCCCC(=O)O; βAla = NCCC(=O)O

T1 sequence (P43220 24-463): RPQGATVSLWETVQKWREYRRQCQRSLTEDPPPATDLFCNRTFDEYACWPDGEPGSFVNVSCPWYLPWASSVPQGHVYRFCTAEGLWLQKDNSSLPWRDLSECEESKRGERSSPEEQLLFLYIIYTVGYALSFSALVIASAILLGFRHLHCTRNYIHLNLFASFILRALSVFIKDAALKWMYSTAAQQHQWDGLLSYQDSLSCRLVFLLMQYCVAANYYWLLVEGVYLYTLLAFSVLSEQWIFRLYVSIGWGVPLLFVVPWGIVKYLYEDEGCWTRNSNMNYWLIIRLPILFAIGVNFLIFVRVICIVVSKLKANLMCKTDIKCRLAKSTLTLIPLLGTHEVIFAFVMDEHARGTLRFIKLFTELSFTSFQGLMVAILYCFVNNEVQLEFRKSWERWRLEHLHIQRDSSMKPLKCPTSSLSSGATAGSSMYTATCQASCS

`CC[C@H](C)[C@H](NC(=O)[C@H](CC(C)C)NC(=O)[C@H](Cc1c[nH]c2ccccc12)NC(=O)[C@H](CCC(N)=O)NC(=O)[C@@H](NC(=O)[C@H](Cc1ccccc1)NC(=O)[C@H](C)NC(=O)[C@H](CCCCNC(=O)COCCOCCNC(=O)COCCOCCNC(=O)CC[C@H](NC(=O)CCCCCCCCCCCCCCCCCCC(=O)O)C(=O)O)NC(=O)[C@H](CCC(N)=O)NC(=O)[C@H](C)NC(=O)[C@@H](NC(=O)[C@H](CCCCN)NC(=O)[C@H](CC(=O)O)NC(=O)[C@H](CC(C)C)NC(=O)C(C)(C)NC(=O)[C@@H](NC(=O)[C@H](CO)NC(=O)[C@H](Cc1ccc(O)cc1)NC(=O)[C@H](CC(=O)O)NC(=O)[C@H](CO)NC(=O)[C@@H](NC(=O)[C@H](Cc1ccccc1)NC(=O)[C@@H](NC(=O)CNC(=O)[C@H](CCC(=O)O)NC(=O)CCNC(=O)C1(c2ccc(Cl)cc2)CCCC1)[C@@H](C)O)[C@@H](C)O)[C@@H](C)CC)[C@@H](C)CC)C(C)C)C(=O)N[C@@H](C)C(=O)NCC(=O)NCC(=O)N1CCC[C@H]1C(=O)N[C@@H](CO)C(=O)N[C@@H](CO)C(=O)NCC(=O)N[C@@H](C)C(=O)N1CCC[C@H]1C(=O)N1CCC[C@H]1C(=O)N1CCC[C@H]1C(=O)N[C@@H](CO)C(N)=O` [Compound 217] ({cPentCO(1-(4-ClPh))-βAla}-EGTFTSDYSI[Aib]LDKIAQK([AEEA-AEEA-γGlu-C20 diacid])AFVQWLIAGGPSSGAPPPS-NH2): the EC50 at GLP-1 receptor [1] (setting [5]) is 0.1 to 1 nM; at GLP-1 receptor [2] (setting [7]), > 1000 nM; on GIP receptor [3] (setting [8]) it was 0.1 to 1 nM; on GIP receptor [4] (setting [10]) it was > 1000 nM. The Emax at GLP-1 receptor [1] (setting [6]) turned out to be 101%; at GIP receptor [3] (setting [9]), 108%.
Turning to `CC[C@H](C)[C@H](NC(=O)[C@H](CC(C)C)NC(=O)[C@H](Cc1c[nH]c2ccccc12)NC(=O)[C@H](CCC(N)=O)NC(=O)[C@@H](NC(=O)[C@H](Cc1ccccc1)NC(=O)[C@H](C)NC(=O)[C@H](CCCCNC(=O)COCCOCCNC(=O)COCCOCCNC(=O)CC[C@H](NC(=O)CCCCCCCCCCCCCCCCCCC(=O)O)C(=O)O)NC(=O)[C@H](CCC(N)=O)NC(=O)[C@H](C)NC(=O)[C@@H](NC(=O)[C@H](CCCCN)NC(=O)[C@H](CC(=O)O)NC(=O)[C@H](CC(C)C)NC(=O)C(C)(C)NC(=O)[C@@H](NC(=O)[C@H](CO)NC(=O)[C@H](Cc1ccc(O)cc1)NC(=O)[C@H](CC(=O)O)NC(=O)[C@H](CO)NC(=O)[C@@H](NC(=O)[C@H](Cc1ccccc1)NC(=O)[C@@H](NC(=O)CNC(=O)[C@H](CCC(=O)O)NC(=O)CCNC(=O)C(CC)(CC)c1ccccc1)[C@@H](C)O)[C@@H](C)O)[C@@H](C)CC)[C@@H](C)CC)C(C)C)C(=O)N[C@@H](C)C(=O)NCC(=O)NCC(=O)N1CCC[C@H]1C(=O)N[C@@H](CO)C(=O)N[C@@H](CO)C(=O)NCC(=O)N[C@@H](C)C(=O)N1CCC[C@H]1C(=O)N1CCC[C@H]1C(=O)N1CCC[C@H]1C(=O)N[C@@H](CO)C(N)=O` [Compound 218] ({X33-βAla}-EGTFTSDYSI[Aib]LDKIAQK([AEEA-AEEA-γGlu-C20 diacid])AFVQWLIAGGPSSGAPPPS-NH2), the 50% effective concentration (EC50) on GLP-1 receptor [1] (setting [5]) was 0.1 to 1 nM; at GLP-1 receptor [2] (setting [7]) it was > 1000 nM; at GIP receptor [3] (setting [8]), 0.1 to 1 nM; on GIP receptor [4] (setting [10]), < 1000 nM. Also, the Emax stood at 103% at GLP-1 receptor [1] (setting [6]) and 100% on GIP receptor [3] (setting [9]).
As to `CC[C@H](C)[C@H](NC(=O)[C@H](CC(C)C)NC(=O)[C@H](Cc1c[nH]c2ccccc12)NC(=O)[C@H](CCC(N)=O)NC(=O)[C@@H](NC(=O)[C@H](Cc1ccccc1)NC(=O)[C@H](C)NC(=O)[C@H](CCCCNC(=O)COCCOCCNC(=O)COCCOCCNC(=O)CC[C@H](NC(=O)CCCCCCCCCCCCCCCCCCC(=O)O)C(=O)O)NC(=O)[C@H](CCC(N)=O)NC(=O)[C@H](C)NC(=O)[C@@H](NC(=O)[C@H](CCCCN)NC(=O)[C@H](CC(=O)O)NC(=O)[C@H](CC(C)C)NC(=O)C(C)(C)NC(=O)[C@@H](NC(=O)[C@H](CO)NC(=O)[C@H](Cc1ccc(O)cc1)NC(=O)[C@H](CC(=O)O)NC(=O)[C@H](CO)NC(=O)[C@@H](NC(=O)[C@H](Cc1ccccc1)NC(=O)[C@@H](NC(=O)CNC(=O)[C@H](CCC(=O)O)NC(=O)CCNC(=O)C(C)(C)c1cccc(Cl)c1F)[C@@H](C)O)[C@@H](C)O)[C@@H](C)CC)[C@@H](C)CC)C(C)C)C(=O)N[C@@H](C)C(=O)NCC(=O)NCC(=O)N1CCC[C@H]1C(=O)N[C@@H](CO)C(=O)N[C@@H](CO)C(=O)NCC(=O)N[C@@H](C)C(=O)N1CCC[C@H]1C(=O)N1CCC[C@H]1C(=O)N1CCC[C@H]1C(=O)N[C@@H](CO)C(N)=O` [Compound 219] ({X72-βAla}-EGTFTSDYSI[Aib]LDKIAQK([AEEA-AEEA-γGlu-C20 diacid])AFVQWLIAGGPSSGAPPPS-NH2), the EC50 at GLP-1 receptor [1] (setting [5]) was < 0.1 nM; at GLP-1 receptor [2] (setting [7]) it was > 1000 nM; on GIP receptor [3] (setting [8]), 0.1 to 1 nM; at GIP receptor [4] (setting [10]) it was < 1000 nM. Further, the maximal response (Emax) on GLP-1 receptor [1] (setting [6]) amounted to 104%; at GIP receptor [3] (setting [9]), 106%.
For `CC[C@H](C)[C@H](NC(=O)[C@H](CC(C)C)NC(=O)[C@H](Cc1c[nH]c2ccccc12)NC(=O)[C@H](CCC(N)=O)NC(=O)[C@@H](NC(=O)[C@H](Cc1ccccc1)NC(=O)[C@H](C)NC(=O)[C@H](CCCCNC(=O)COCCOCCNC(=O)COCCOCCNC(=O)CC[C@H](NC(=O)CCCCCCCCCCCCCCCCCCC(=O)O)C(=O)O)NC(=O)[C@H](CCC(N)=O)NC(=O)[C@H](C)NC(=O)[C@@H](NC(=O)[C@H](CCCCN)NC(=O)[C@H](CC(=O)O)NC(=O)[C@H](CC(C)C)NC(=O)C(C)(C)NC(=O)[C@@H](NC(=O)[C@H](CO)NC(=O)[C@H](Cc1ccc(O)cc1)NC(=O)[C@H](CC(=O)O)NC(=O)[C@H](CO)NC(=O)[C@@H](NC(=O)[C@H](Cc1ccccc1)NC(=O)[C@@H](NC(=O)CNC(=O)[C@H](CCC(=O)O)NC(=O)CCNC(=O)C1(c2ccc(F)cc2F)CCCC1)[C@@H](C)O)[C@@H](C)O)[C@@H](C)CC)[C@@H](C)CC)C(C)C)C(=O)N[C@@H](C)C(=O)NCC(=O)NCC(=O)N1CCC[C@H]1C(=O)N[C@@H](CO)C(=O)N[C@@H](CO)C(=O)NCC(=O)N[C@@H](C)C(=O)N1CCC[C@H]1C(=O)N1CCC[C@H]1C(=O)N1CCC[C@H]1C(=O)N[C@@H](CO)C(N)=O` [Compound 220] ({X5-βAla}-EGTFTSDYSI[Aib]LDKIAQK([AEEA-AEEA-γGlu-C20 diacid])AFVQWLIAGGPSSGAPPPS-NH2), the EC50 is 0.1 to 1 nM on GLP-1 receptor [1] (setting [5]), > 1000 nM on GLP-1 receptor [2] (setting [7]), 0.1 to 1 nM at GIP receptor [3] (setting [8]) and < 1000 nM on GIP receptor [4] (setting [10]). Besides, the maximal effect (Emax) on GLP-1 receptor [1] (setting [6]) amounted to 102%; at GIP receptor [3] (setting [9]) it was 108%.
With `CC[C@H](C)[C@H](NC(=O)[C@H](CC(C)C)NC(=O)[C@H](Cc1c[nH]c2ccccc12)NC(=O)[C@H](CCC(N)=O)NC(=O)[C@@H](NC(=O)[C@H](Cc1ccccc1)NC(=O)[C@H](C)NC(=O)[C@H](CCCCNC(=O)COCCOCCNC(=O)COCCOCCNC(=O)CC[C@H](NC(=O)CCCCCCCCCCCCCCCCCCC(=O)O)C(=O)O)NC(=O)[C@H](CCC(N)=O)NC(=O)[C@H](C)NC(=O)[C@@H](NC(=O)[C@H](CCCCN)NC(=O)[C@H](CC(=O)O)NC(=O)[C@H](CC(C)C)NC(=O)C(C)(C)NC(=O)[C@@H](NC(=O)[C@H](CO)NC(=O)[C@H](Cc1ccc(O)cc1)NC(=O)[C@H](CC(=O)O)NC(=O)[C@H](CO)NC(=O)[C@@H](NC(=O)[C@H](Cc1ccccc1)NC(=O)[C@@H](NC(=O)CNC(=O)[C@H](CCC(=O)O)NC(=O)CCCNC(=O)CNC(=O)Cc1cccc(Cl)c1)[C@@H](C)O)[C@@H](C)O)[C@@H](C)CC)[C@@H](C)CC)C(C)C)C(=O)N[C@@H](C)C(=O)NCC(=O)NCC(=O)N1CCC[C@H]1C(=O)N[C@@H](CO)C(=O)N[C@@H](CO)C(=O)NCC(=O)N[C@@H](C)C(=O)N1CCC[C@H]1C(=O)N1CCC[C@H]1C(=O)N1CCC[C@H]1C(=O)N[C@@H](CO)C(N)=O` [Compound 221] ({Phenylacetyl(3-Cl)}-G[GABA]EGTFTSDYSI[Aib]LDKIAQK([AEEA-AEEA-γGlu-C20 diacid])AFVQWLIAGGPSSGAPPPS-NH2), the EC50 at GLP-1 receptor [1] is 10 to 100 nM; on GLP-1 receptor [2], > 1000 nM; at GIP receptor [3], 10 to 100 nM; on GIP receptor [4], > 1000 nM. The Emax at GLP-1 receptor [1] (CHO) and on GIP receptor [3] (CHO) was 95% throughout.
